From the NIST ThermoML archive (doi:10.1016/j.jct.2019.105881)
± gives the expanded uncertainty stated by the source.

Assay: wn = mass fraction of the nth substance listed
Conditions: 100 kPa, Liquid, transient hot wire

CCCCCCCCCCCC(=O)OC [methyl dodecanoate] + CCCCCO
Conditions	thermal conductivity [W/m/K]
287.79 K, w1 = 0.6756	0.1488 ± 0.006
287.86 K, w1 = 0.2997	0.1497 ± 0.006
287.92 K, w1 = 0.5029	0.1493 ± 0.006
288 K, w1 = 0.1021	0.1503 ± 0.0061
288.01 K, w1 = 0.8983	0.1482 ± 0.006
297.82 K, w1 = 0.1021	0.1486 ± 0.006
297.86 K, w1 = 0.5029	0.1475 ± 0.0059
297.95 K, w1 = 0.6756	0.1469 ± 0.0059
298.07 K, w1 = 0.2997	0.148 ± 0.006
298.1 K, w1 = 0.8983	0.1456 ± 0.0059
307.72 K, w1 = 0.1021	0.1468 ± 0.0059
307.78 K, w1 = 0.6756	0.145 ± 0.0058
307.8 K, w1 = 0.5029	0.1453 ± 0.0058
307.84 K, w1 = 0.2997	0.1455 ± 0.0059
307.9 K, w1 = 0.8983	0.1441 ± 0.0058
317.72 K, w1 = 0.1021	0.1441 ± 0.0058
317.72 K, w1 = 0.2997	0.1435 ± 0.0058
317.8 K, w1 = 0.6756	0.1424 ± 0.0057
317.85 K, w1 = 0.5029	0.1429 ± 0.0058
317.85 K, w1 = 0.8983	0.1419 ± 0.0057
327.58 K, w1 = 0.1021	0.1422 ± 0.0057
327.68 K, w1 = 0.2997	0.1412 ± 0.0057
327.7 K, w1 = 0.6756	0.1407 ± 0.0057
327.72 K, w1 = 0.5029	0.141 ± 0.0057
327.87 K, w1 = 0.8983	0.1397 ± 0.0056
337.42 K, w1 = 0.1021	0.1399 ± 0.0056
337.53 K, w1 = 0.2997	0.139 ± 0.0056
337.67 K, w1 = 0.5029	0.1389 ± 0.0056
337.76 K, w1 = 0.6756	0.1385 ± 0.0056
337.85 K, w1 = 0.8983	0.1373 ± 0.0055
347.5 K, w1 = 0.2997	0.137 ± 0.0055
347.65 K, w1 = 0.1021	0.138 ± 0.0056
347.66 K, w1 = 0.5029	0.1368 ± 0.0055
347.7 K, w1 = 0.8983	0.1352 ± 0.0054
347.78 K, w1 = 0.6756	0.1356 ± 0.0055
357.16 K, w1 = 0.1021	0.1364 ± 0.0055
357.47 K, w1 = 0.2997	0.135 ± 0.0054
357.65 K, w1 = 0.5029	0.1348 ± 0.0054
357.73 K, w1 = 0.6756	0.1335 ± 0.0054
357.79 K, w1 = 0.8983	0.1332 ± 0.0054

CCCCCCCCCCCC(=O)OC [methyl dodecanoate] + CCCO
Conditions	thermal conductivity [W/m/K]
287.68 K, w1 = 0.6993	0.1497 ± 0.006
287.9 K, w1 = 0.298	0.1522 ± 0.0061
287.91 K, w1 = 0.1	0.1542 ± 0.0062
288 K, w1 = 0.4998	0.1509 ± 0.0061
288.06 K, w1 = 0.8996	0.1484 ± 0.006
297.73 K, w1 = 0.6993	0.1473 ± 0.0059
297.79 K, w1 = 0.1	0.1517 ± 0.0061
297.85 K, w1 = 0.4998	0.1484 ± 0.006
297.85 K, w1 = 0.8996	0.1467 ± 0.0059
297.93 K, w1 = 0.298	0.1494 ± 0.006
307.66 K, w1 = 0.1	0.1492 ± 0.006
307.76 K, w1 = 0.4998	0.1457 ± 0.0059
307.83 K, w1 = 0.298	0.1474 ± 0.0059
307.89 K, w1 = 0.8996	0.1445 ± 0.0058
308.03 K, w1 = 0.6993	0.1452 ± 0.0058
317.53 K, w1 = 0.298	0.1451 ± 0.0058
317.62 K, w1 = 0.1	0.1474 ± 0.0059
317.67 K, w1 = 0.4998	0.1436 ± 0.0058
317.86 K, w1 = 0.6993	0.1429 ± 0.0058
318.02 K, w1 = 0.8996	0.1422 ± 0.0057
327.34 K, w1 = 0.298	0.1424 ± 0.0057
327.67 K, w1 = 0.1	0.1446 ± 0.0058
327.67 K, w1 = 0.4998	0.1412 ± 0.0057
327.68 K, w1 = 0.8996	0.1398 ± 0.0056
328.03 K, w1 = 0.6993	0.1405 ± 0.0057
337.22 K, w1 = 0.1	0.1423 ± 0.0057
337.4 K, w1 = 0.298	0.14 ± 0.0056
337.64 K, w1 = 0.4998	0.1391 ± 0.0056
337.82 K, w1 = 0.6993	0.1384 ± 0.0056
337.85 K, w1 = 0.8996	0.1377 ± 0.0055
347.19 K, w1 = 0.1	0.139 ± 0.0056
347.24 K, w1 = 0.298	0.1374 ± 0.0055
347.52 K, w1 = 0.4998	0.1368 ± 0.0055
347.82 K, w1 = 0.6993	0.1362 ± 0.0055
347.93 K, w1 = 0.8996	0.135 ± 0.0054
357.25 K, w1 = 0.1	0.1365 ± 0.0055
357.44 K, w1 = 0.298	0.1351 ± 0.0054
357.79 K, w1 = 0.4998	0.1344 ± 0.0054
357.91 K, w1 = 0.6993	0.1337 ± 0.0054
357.93 K, w1 = 0.8996	0.1326 ± 0.0053

CCCCCCCCCCCC(=O)OC [methyl dodecanoate] + CCCCO
Conditions	thermal conductivity [W/m/K]
287.91 K, w1 = 0.3009	0.1499 ± 0.006
287.94 K, w1 = 0.1013	0.1515 ± 0.0061
287.95 K, w1 = 0.5027	0.1492 ± 0.006
288.07 K, w1 = 0.6997	0.1488 ± 0.006
288.14 K, w1 = 0.8996	0.1485 ± 0.006
297.76 K, w1 = 0.1013	0.1489 ± 0.006
297.9 K, w1 = 0.6997	0.1469 ± 0.0059
297.92 K, w1 = 0.5027	0.1471 ± 0.0059
297.95 K, w1 = 0.3009	0.1475 ± 0.0059
298.02 K, w1 = 0.8996	0.1463 ± 0.0059
307.79 K, w1 = 0.1013	0.1465 ± 0.0059
307.81 K, w1 = 0.3009	0.1457 ± 0.0059
307.83 K, w1 = 0.5027	0.1452 ± 0.0058
307.96 K, w1 = 0.8996	0.1441 ± 0.0058
307.99 K, w1 = 0.6997	0.1445 ± 0.0058
317.67 K, w1 = 0.3009	0.1434 ± 0.0058
317.75 K, w1 = 0.1013	0.144 ± 0.0058
317.8 K, w1 = 0.5027	0.1426 ± 0.0057
317.83 K, w1 = 0.8996	0.1422 ± 0.0057
317.88 K, w1 = 0.6997	0.1424 ± 0.0057
327.6 K, w1 = 0.1013	0.1419 ± 0.0057
327.69 K, w1 = 0.3009	0.1411 ± 0.0057
327.94 K, w1 = 0.5027	0.14 ± 0.0056
327.94 K, w1 = 0.6997	0.1398 ± 0.0056
328.11 K, w1 = 0.8996	0.139 ± 0.0056
337.45 K, w1 = 0.3009	0.1386 ± 0.0056
337.47 K, w1 = 0.1013	0.1395 ± 0.0056
337.93 K, w1 = 0.5027	0.1378 ± 0.0055
337.95 K, w1 = 0.8996	0.1371 ± 0.0055
337.96 K, w1 = 0.6997	0.1375 ± 0.0055
347.23 K, w1 = 0.1013	0.1368 ± 0.0055
347.28 K, w1 = 0.3009	0.1361 ± 0.0055
347.67 K, w1 = 0.6997	0.1354 ± 0.0054
347.73 K, w1 = 0.5027	0.1358 ± 0.0055
347.86 K, w1 = 0.8996	0.135 ± 0.0054
357.25 K, w1 = 0.3009	0.1333 ± 0.0054
357.28 K, w1 = 0.1013	0.1342 ± 0.0054
357.71 K, w1 = 0.8996	0.1322 ± 0.0053
357.82 K, w1 = 0.5027	0.133 ± 0.0054
357.87 K, w1 = 0.6997	0.1327 ± 0.0053
